“Also recorded” adds a separate entry of the source. Like-named read-outs stand apart in the source and are kept apart here. Marks after values point to notes of the source that are not given here.
How the values were obtained:
[1] = tested on: Adrenergic α2 (subtype not identified) (rat cortex); experiment: Off-target screen, radioligand displacement at 10 μM; format: binding; conditions: antagonist radioligand
[2] = molecular target: human alpha2C receptor (Homo sapiens (Human), UniProt P18825); experiment: alpha2C receptor binding ([3H]rauwolscine)
Method: At 10 μM, I-1 inhibited 97% of radioligand bound to rat alpha2 receptors.

[3] = tested on: bdnf, homer1, Egr2, cFos mRNA (frontal cortex); experiment: Brain markers of neuroplasticity, gene expression in frontal cortex; format: in vivo, mouse
Method: To evaluate the effects of I-1 on brain markers of neuroplasticity, male C57BL/6J mice were dosed as described in Table 10.
On Day 4, the animals were euthanized 2 hours post-dose. The left frontal cortex was dissected and stored in RNAlater.
Data were log transformed and analyzed by one-way analysis of variance. Each treatment was compared to vehicle by multiple comparisons. […] Moreover, increased homer1 expression, which is associated with the formation of postsynaptic scaffolds that cluster and colocalize NMDAR and mGluR was observed (FIG. 57C); and increased Egr2 expression, a […] that has been proposed to be a marker for psychedelic activation of 5-HT2A receptors (Gonzalez-Maeso et al., Transcriptome fingerprints distinguish hallucinogenic and nonhallucinogenic 5-hydroxytryptamine 2A receptor agonist effects in mouse somatosensory cortex. J Neurosci. 2003; 23(26), 8836-43) was observed (FIG. 57D). Upregulation of bdnf, a neurotrophin that regulates the survival and growth of neurons and influences synaptic efficiency and plasticity, was also observed (FIG. 57A).

[4] = Brain protein binding; format: in vitro ADME; conditions: dilute brain homogenate
Source text: The CSF concentrations were only 20% of that found in plasma. Concomitantly CSF concentrations were 1.6% of brain concentrations. The CSF/brain ratio corroborates brain protein binding experiments in which the free fraction of compound I-1 in dilute brain homogenate was 1.4%.

[5] = tested on: C57BL/6J mice; experiment: HTR after oral or s.c. administration in C57BL/6J mice; format: in vivo, mouse
Method: In another experiment, C57BL/6J mice were moved to the behavior room 30 min prior to administration of the test compound. Test compound was administered either s.c. or p.o. at 1 to 10 mg/kg immediately prior to testing and HTR activity was assessed from 1-30 min and again from 120-150 by blind experienced testers in real-time.

[6] = molecular target: 5-HT1A receptors (Homo sapiens (Human), UniProt P08908); experiment: 5-HT1A radioligand binding ([3H]8-OH-DPAT)
Method: In another series of 5-HT1A,2A,2B radioligand competition binding assays, the conditions were as follows: For 5-HT1A assays, cell membrane homogenates (˜30 μg protein) derived from HEK-293 cells expressing human 5-HT1ARs were incubated with 0.5 nM [^3H]8-hydroxy-2-(di-n-propylamino)tetralin ([^3H]8-OH-DPAT) for 60 min at room temperature in the presence or absence of the test article. Non-specific binding was determined in the presence of 10 μM 8-OH-DPAT. Samples were then analyzed as described above, with only immaterial differences. […] Samples were then analyzed as described above.

[7] = Plasma and brain concentrations after dosing in mice (screening); format: in vivo, mouse; conditions: for concentration at 160 min: sc, mice, 3 mg/kg s.c.
[8] = molecular target: human alpha2A receptor (Homo sapiens (Human), UniProt P08913); experiment: alpha2A receptor function; format: cell-based
[9] = tested on: mice; experiment: Head-twitch response (HTR) screening in mice; format: in vivo, mouse
Method: Protocols were followed according to Canal C E, Morgan D. Head-twitch response in rodents induced by the hallucinogen 2,5-dimethoxy-4-iodoamphetamine: a comprehensive history, a re-evaluation of mechanisms, and its utility as a model. […] Mice were housed in standard laboratory cages with ad libitum access to food and water and were acclimated to the vivarium for at least one week prior to testing in a procedure room. In a typical experiment, mice were injected 3 mg/kg of test article subcutaneously. Mice were placed immediately thereafter in a clear, polycarbonate box (46×20×20 cm), and HTRs were counted at various time points after administration using hand-held tally counters. In a separate experiment, plasma and brain samples were collected at 15 and 160 minutes after administration of test compounds to measure plasma and brain concentrations. Quantification was performed using LC-MS/MS method (LLOQ, 9 nM).

[10] = PK profile in C57BL/6J mice (plasma, brain); format: in vivo, mouse; conditions: for Kp / half-life / AUC(0-t) / Cmax / MRT last / Tmax / AUC(0-inf): male, C57BL/6J, mouse; for Kp: brain/plasma, read-out: Brain/Plasma ratio (AUCINF); for AUC(0-inf): read-out: AUCINF—obs
Method: PK Profile in Mice. To evaluate the full PK profile for I-1 in mice, plasma and brain samples were determined in male C57BL/6J mice following subcutaneous (s.c.) and oral (p.o.) administration at 3 mg/kg (see Table 7 and FIGS. 54A and 54B). In a typical experiment, blood was collected via cardiac puncture (N=3 animals per time point, 9 time points) up to 24 hours post dose. Plasma and brain concentrations were determined using LC-MS/MS and PK parameters were determined using a non-compartmental analysis (NCA) using Phoenix WinNonlin Pro (v8.3.1, Pharsight, Inc, USA) software.

[11] = 2 h after fourth dose of 0.3 mg/kg s.c. (group C) vs vehicle
[12] = 2 h after single 3 mg/kg s.c. (group B) vs vehicle

human alpha2A receptor, sequence (P08913 whole entry): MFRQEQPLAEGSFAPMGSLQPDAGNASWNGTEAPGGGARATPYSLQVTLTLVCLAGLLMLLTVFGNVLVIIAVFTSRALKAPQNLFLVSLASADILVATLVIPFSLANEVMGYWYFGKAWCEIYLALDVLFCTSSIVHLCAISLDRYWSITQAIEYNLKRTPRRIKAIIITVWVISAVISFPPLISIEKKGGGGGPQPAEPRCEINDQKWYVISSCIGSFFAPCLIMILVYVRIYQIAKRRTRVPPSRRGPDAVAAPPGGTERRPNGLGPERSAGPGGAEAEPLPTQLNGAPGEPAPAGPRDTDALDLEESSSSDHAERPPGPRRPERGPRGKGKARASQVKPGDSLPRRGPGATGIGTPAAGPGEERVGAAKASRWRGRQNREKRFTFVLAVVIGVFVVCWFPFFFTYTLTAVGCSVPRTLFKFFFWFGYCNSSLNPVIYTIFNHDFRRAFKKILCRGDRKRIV
human alpha2C receptor, sequence (P18825 whole entry): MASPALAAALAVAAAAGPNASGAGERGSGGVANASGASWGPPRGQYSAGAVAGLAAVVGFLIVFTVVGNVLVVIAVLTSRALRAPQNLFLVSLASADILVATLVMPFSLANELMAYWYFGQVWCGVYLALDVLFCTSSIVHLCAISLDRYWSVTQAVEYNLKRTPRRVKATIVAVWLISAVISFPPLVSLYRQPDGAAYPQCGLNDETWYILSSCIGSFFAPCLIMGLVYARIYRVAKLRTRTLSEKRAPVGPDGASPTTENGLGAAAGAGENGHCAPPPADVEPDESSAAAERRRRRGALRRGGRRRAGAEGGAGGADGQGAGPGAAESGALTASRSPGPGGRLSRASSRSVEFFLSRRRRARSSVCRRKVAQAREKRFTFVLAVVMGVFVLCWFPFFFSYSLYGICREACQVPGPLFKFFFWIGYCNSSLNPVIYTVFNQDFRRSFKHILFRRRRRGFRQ

COc1cc(SC(F)(F)F)c(OC)cc1CCN [Compound I-1, 2-(2,5-dimethoxy-4-((trifluoromethyl)thio)phenyl)ethan-1-amine]
inhibition at 10 µM [1]: 97.3%
Ki [2]: 108 nM
Egr2 mRNA expression [3, 11]: Increased expression
homer1 mRNA expression [3, 11]: Increased expression
Egr2 (krox20) mRNA expression [3, 12]: Increased expression
bdnf mRNA expression [3, 12]: Increased expression
cFos mRNA expression [3, 12]: Increased expression
homer1 mRNA expression [3, 12]: Increased expression
fraction unbound [4]: 0.014
HTR after oral administration ([5]; 1, 3, 10 mg/kg p.o.): elicited the HTR; also recorded: dose-dependent increase in HTRs
HTR duration versus DOI, oral ([5]; p.o.): greater duration than DOI
inhibition at 0.1 µM ([6]; 100 nM): 55%
inhibition at 1 µM ([6]; 1 uM): 90%
brain/plasma ratio, 160 min ([7]; 160 min after 3 mg/kg): 32.4
concentration at 160 min ([7]; mouse, brain, read-out: Brain, 160 min): 9.6 µM
Kp at 160 min ([7]; mouse, brain/plasma, subcutaneous, 3 mg/kg, 160 min after 3 mg/kg, read-out: brain/plasma ratio, 160 min): 24 to 32
concentration at 160 min ([7]; mouse, plasma, read-out: Plasma, 160 min): 0.3 µM
EC50 [8]: 165 nM
HTR 15-25 min ([9]; calculated using 0-5 min): 27.4 #
HTR 160-170 min ([9]; calculated using 3 min time bin): 30.4 ###
AUCINF ([10]; brain, p.o. 3 mg/kg): 16171 ng·h/g
T1/2 ([10]; brain, p.o. 3 mg/kg): 2.73 h
peak brain concentration ([10]; brain, p.o. 3 mg/kg): 2366 ng/g
AUCINF ([10]; brain, s.c. 3 mg/kg): 22487 ng·h/g
T1/2 ([10]; brain, s.c. 3 mg/kg): 3.15 h
peak brain concentration ([10]; brain, s.c. 3 mg/kg): 3165 ng/g
Kp ([10]; po, p.o. 3 mg/kg): 25.8
Kp ([10]; sc, s.c. 3 mg/kg): 30.7
half-life ([10]; plasma and brain, other: subcutaneous and oral (range over both routes), 3 mg/kg, across route of administration and tissue, read-out: elimination T1/2): 2.73 to 3.92 h
AUC(0-t) ([10]; po, brain, p.o. 3 mg/kg): 16100 ng·h/mL
Cmax ([10]; po, brain, p.o. 3 mg/kg): 2370 ng/mL
MRT last ([10]; po, brain, p.o. 3 mg/kg): 5.35 h
Tmax ([10]; po, brain, p.o. 3 mg/kg): 1 h
AUC(0-inf) ([10]; po, brain, p.o. 3 mg/kg): 16200 ng·h/mL
half-life ([10]; po, brain, p.o. 3 mg/kg, read-out: T1/2 (converted)): 2.73 h
AUC(0-t) ([10]; po, plasma, p.o. 3 mg/kg): 625 ng·h/mL
Cmax ([10]; po, plasma, p.o. 3 mg/kg): 175 ng/mL
MRT last ([10]; po, plasma, p.o. 3 mg/kg): 3.01 h
Tmax ([10]; po, plasma, p.o. 3 mg/kg): 1 h
AUC(0-inf) ([10]; po, plasma, p.o. 3 mg/kg): 784 ng·h/mL
half-life ([10]; po, plasma, p.o. 3 mg/kg, read-out: T1/2 (converted)): 3.3 h
AUC(0-t) ([10]; sc, brain, s.c. 3 mg/kg): 22500 ng·h/mL
Cmax ([10]; sc, brain, s.c. 3 mg/kg): 3160 ng/mL
MRT last ([10]; sc, brain, s.c. 3 mg/kg): 4.89 h
Tmax ([10]; sc, brain, s.c. 3 mg/kg): 2 h
AUC(0-inf) ([10]; sc, brain, s.c. 3 mg/kg): 22500 ng·h/mL
half-life ([10]; sc, brain, s.c. 3 mg/kg, read-out: T1/2 (converted)): 3.15 h
AUC(0-t) ([10]; sc, plasma, s.c. 3 mg/kg): 731 ng·h/mL
Cmax ([10]; sc, plasma, s.c. 3 mg/kg): 188 ng/mL
MRT last ([10]; sc, plasma, s.c. 3 mg/kg): 2.96 h
Tmax ([10]; sc, plasma, s.c. 3 mg/kg): 0.08 h
AUC(0-inf) ([10]; sc, plasma, s.c. 3 mg/kg): 1000 ng·h/mL
half-life ([10]; sc, plasma, s.c. 3 mg/kg, read-out: T1/2 (converted)): 3.92 h
% Frelative po (AUCINF) ([10]; plasma, oral relative to subcutaneous): 78.3%
T1/2 ([10]; plasma, s.c. 3 mg/kg): 3.92 h
